{
  "source": "PubChem BioAssay (NCI)",
  "assay_in_all_cases": "NCI-60 cell line screen, 48 h",
  "key": {"SF-295 CNS": {"tested_on": "SF-295 CNS"}, "SNB-19 CNS": {"tested_on": "SNB-19 CNS"}, "HOP-62 NSCLC": {"tested_on": "HOP-62 NSCLC"}, "MDA-N": {"tested_on": "MDA-N"}, "BT-549 breast": {"tested_on": "BT-549 breast"}, "SK-MEL-5 melanoma": {"tested_on": "SK-MEL-5 melanoma"}, "OVCAR-3 ovarian": {"tested_on": "OVCAR-3 ovarian"}, "U251 CNS": {"tested_on": "U251 CNS"}, "CAKI-1 renal": {"tested_on": "CAKI-1 renal"}, "OVCAR-4 ovarian": {"tested_on": "OVCAR-4 ovarian"}, "MALME-3M melanoma": {"tested_on": "MALME-3M melanoma"}, "RXF 393 renal": {"tested_on": "RXF 393 renal"}, "HOP-92 NSCLC": {"tested_on": "HOP-92 NSCLC"}, "HT29 colon": {"tested_on": "HT29 colon"}, "HCT-15 colon": {"tested_on": "HCT-15 colon"}, "HL-60(TB) leukemia": {"tested_on": "HL-60(TB) leukemia"}, "COLO 205 colon": {"tested_on": "COLO 205 colon"}, "OVCAR-5 ovarian": {"tested_on": "OVCAR-5 ovarian"}, "MOLT-4 leukemia": {"tested_on": "MOLT-4 leukemia"}, "MDA-MB-435": {"tested_on": "MDA-MB-435"}, "SF-268 CNS": {"tested_on": "SF-268 CNS"}, "SW-620 colon": {"tested_on": "SW-620 colon"}, "TK-10 renal": {"tested_on": "TK-10 renal"}, "A498 renal": {"tested_on": "A498 renal"}, "CCRF-CEM leukemia": {"tested_on": "CCRF-CEM leukemia"}, "HCT-116 colon": {"tested_on": "HCT-116 colon"}, "MDA-MB-231 breast": {"tested_on": "MDA-MB-231 breast"}, "K-562 leukemia": {"tested_on": "K-562 leukemia"}, "SF-539 CNS": {"tested_on": "SF-539 CNS"}, "SK-MEL-28 melanoma": {"tested_on": "SK-MEL-28 melanoma"}, "NCI/ADR-RES ovarian": {"tested_on": "NCI/ADR-RES ovarian"}, "UACC-257 melanoma": {"tested_on": "UACC-257 melanoma"}, "UACC-62 melanoma": {"tested_on": "UACC-62 melanoma"}, "UO-31 renal": {"tested_on": "UO-31 renal"}, "SK-OV-3 ovarian": {"tested_on": "SK-OV-3 ovarian"}, "M14 melanoma": {"tested_on": "M14 melanoma"}, "HCC-2998 colon": {"tested_on": "HCC-2998 colon"}, "SNB-75 CNS": {"tested_on": "SNB-75 CNS"}, "SK-MEL-2 melanoma": {"tested_on": "SK-MEL-2 melanoma"}, "OVCAR-8 ovarian": {"tested_on": "OVCAR-8 ovarian"}, "HS 578T breast": {"tested_on": "HS 578T breast"}, "DU-145 prostate": {"tested_on": "DU-145 prostate"}, "LOX IMVI melanoma": {"tested_on": "LOX IMVI melanoma"}, "NCI-H23 lung": {"tested_on": "NCI-H23 lung"}, "ACHN renal": {"tested_on": "ACHN renal"}, "NCI-H522 lung": {"tested_on": "NCI-H522 lung"}, "EKVX NSCLC": {"tested_on": "EKVX NSCLC"}, "PC-3 prostate": {"tested_on": "PC-3 prostate"}, "A549 NSCLC": {"tested_on": "A549 NSCLC"}, "NCI-H460 lung": {"tested_on": "NCI-H460 lung"}, "NCI-H226 lung": {"tested_on": "NCI-H226 lung"}, "SN12C renal": {"tested_on": "SN12C renal"}, "IGROV1 ovarian": {"tested_on": "IGROV1 ovarian"}, "KM12 colon": {"tested_on": "KM12 colon"}, "786-0 renal": {"tested_on": "786-0 renal"}},
  "note": "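Step 1: Grow cells in 96-well plates. Step 2: Expose to compound for 48 hours at 5 concentrations. Step 3: Interpolate endpoints linearly; if unreached, use highest concentration. At the TGI there is no net growth.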",
  "data": [
    {"smiles": "CC(OC(C)(C)C)[C@H](NC(=O)OCc1ccccc1)C(=O)NC(OCc1ccccc1)[C@H]1COC(C)(C)O1", "note": "(stereo not given in full)", "values": [
      {"measurement": "TGI", "setting": "SF-295 CNS", "result": "> 10", "unit": "µM"},
      {"measurement": "TGI", "setting": "SNB-19 CNS", "result": "> 10", "unit": "µM"},
      {"measurement": "TGI", "setting": "HOP-62 NSCLC", "result": "> 10", "unit": "µM"},
      {"measurement": "TGI", "setting": "MDA-N", "result": "> 10", "unit": "µM"},
      {"measurement": "TGI", "setting": "BT-549 breast", "result": "> 10", "unit": "µM"},
      {"measurement": "TGI", "setting": "SK-MEL-5 melanoma", "result": "> 10", "unit": "µM"},
      {"measurement": "TGI", "setting": "OVCAR-3 ovarian", "result": "> 10", "unit": "µM"},
      {"measurement": "TGI", "setting": "U251 CNS", "result": "> 10", "unit": "µM"},
      {"measurement": "TGI", "setting": "CAKI-1 renal", "result": "> 10", "unit": "µM"},
      {"measurement": "TGI", "setting": "OVCAR-4 ovarian", "result": "> 10", "unit": "µM"},
      {"measurement": "TGI", "setting": "MALME-3M melanoma", "result": "> 10", "unit": "µM"},
      {"measurement": "TGI", "setting": "RXF 393 renal", "result": "> 100", "unit": "µM"},
      {"measurement": "TGI", "setting": "HOP-92 NSCLC", "result": "> 10", "unit": "µM"},
      {"measurement": "TGI", "setting": "HT29 colon", "result": "> 10", "unit": "µM"},
      {"measurement": "TGI", "setting": "HCT-15 colon", "result": "> 10", "unit": "µM"},
      {"measurement": "TGI", "setting": "HL-60(TB) leukemia", "result": "> 10", "unit": "µM"},
      {"measurement": "TGI", "setting": "COLO 205 colon", "result": "> 10", "unit": "µM"},
      {"measurement": "TGI", "setting": "OVCAR-5 ovarian", "result": "> 10", "unit": "µM"},
      {"measurement": "TGI", "setting": "MOLT-4 leukemia", "result": "> 10", "unit": "µM"},
      {"measurement": "TGI", "setting": "MDA-MB-435", "result": "> 10", "unit": "µM"},
      {"measurement": "TGI", "setting": "SF-268 CNS", "result": "> 100", "unit": "µM"},
      {"measurement": "TGI", "setting": "SW-620 colon", "result": "> 10", "unit": "µM"},
      {"measurement": "TGI", "setting": "TK-10 renal", "result": "> 10", "unit": "µM"},
      {"measurement": "TGI", "setting": "A498 renal", "result": "> 10", "unit": "µM"},
      {"measurement": "TGI", "setting": "CCRF-CEM leukemia", "result": "> 10", "unit": "µM"},
      {"measurement": "TGI", "setting": "HCT-116 colon", "result": "> 100", "unit": "µM"},
      {"measurement": "TGI", "setting": "MDA-MB-231 breast", "result": "> 10", "unit": "µM"},
      {"measurement": "TGI", "setting": "K-562 leukemia", "result": "> 10", "unit": "µM"},
      {"measurement": "TGI", "setting": "SF-539 CNS", "result": "> 10", "unit": "µM"},
      {"measurement": "TGI", "setting": "SK-MEL-28 melanoma", "result": "> 100", "unit": "µM"},
      {"measurement": "TGI", "setting": "NCI/ADR-RES ovarian", "result": "> 10", "unit": "µM"},
      {"measurement": "TGI", "setting": "UACC-257 melanoma", "result": "> 10", "unit": "µM"},
      {"measurement": "TGI", "setting": "UACC-62 melanoma", "result": "> 10", "unit": "µM"},
      {"measurement": "TGI", "setting": "UO-31 renal", "result": "> 10", "unit": "µM"},
      {"measurement": "TGI", "setting": "SK-OV-3 ovarian", "result": "> 10", "unit": "µM"},
      {"measurement": "TGI", "setting": "M14 melanoma", "result": "> 10", "unit": "µM"},
      {"measurement": "TGI", "setting": "HCC-2998 colon", "result": "> 10", "unit": "µM"},
      {"measurement": "TGI", "setting": "SNB-75 CNS", "result": "> 10", "unit": "µM"},
      {"measurement": "TGI", "setting": "SK-MEL-2 melanoma", "result": "> 10", "unit": "µM"},
      {"measurement": "TGI", "setting": "OVCAR-8 ovarian", "result": "> 10", "unit": "µM"},
      {"measurement": "TGI", "setting": "HS 578T breast", "result": "> 10", "unit": "µM"},
      {"measurement": "TGI", "setting": "DU-145 prostate", "result": "> 100", "unit": "µM"},
      {"measurement": "TGI", "setting": "LOX IMVI melanoma", "result": "> 10", "unit": "µM"},
      {"measurement": "TGI", "setting": "NCI-H23 lung", "result": "> 10", "unit": "µM"},
      {"measurement": "TGI", "setting": "ACHN renal", "result": "> 10", "unit": "µM"},
      {"measurement": "TGI", "setting": "NCI-H522 lung", "result": "> 10", "unit": "µM"},
      {"measurement": "TGI", "setting": "EKVX NSCLC", "result": "> 10", "unit": "µM"},
      {"measurement": "TGI", "setting": "PC-3 prostate", "result": "> 10", "unit": "µM"},
      {"measurement": "TGI", "setting": "A549 NSCLC", "result": "> 100", "unit": "µM"},
      {"measurement": "TGI", "setting": "NCI-H460 lung", "result": "> 10", "unit": "µM"},
      {"measurement": "TGI", "setting": "NCI-H226 lung", "result": "> 10", "unit": "µM"},
      {"measurement": "TGI", "setting": "SN12C renal", "result": "> 10", "unit": "µM"},
      {"measurement": "TGI", "setting": "IGROV1 ovarian", "result": "> 10", "unit": "µM"},
      {"measurement": "TGI", "setting": "KM12 colon", "result": "> 10", "unit": "µM"},
      {"measurement": "TGI", "setting": "786-0 renal", "result": "> 10", "unit": "µM"}
    ]}
  ]
}
